From ChEMBL document CHEMBL1152057, “A note of caution in the use of receptor binding assays to screen marine organisms: the action of halistanol trisulphate on adenosine receptors” (Bioorg Med Chem Lett, 1992) come the findings set out here.

pIC50, pKd: −log10 of the molar value.

In assay [1] the target is T1, Adenosine receptor A1 (Rattus norvegicus, UniProt P25099).
T1 sequence (P25099 whole entry): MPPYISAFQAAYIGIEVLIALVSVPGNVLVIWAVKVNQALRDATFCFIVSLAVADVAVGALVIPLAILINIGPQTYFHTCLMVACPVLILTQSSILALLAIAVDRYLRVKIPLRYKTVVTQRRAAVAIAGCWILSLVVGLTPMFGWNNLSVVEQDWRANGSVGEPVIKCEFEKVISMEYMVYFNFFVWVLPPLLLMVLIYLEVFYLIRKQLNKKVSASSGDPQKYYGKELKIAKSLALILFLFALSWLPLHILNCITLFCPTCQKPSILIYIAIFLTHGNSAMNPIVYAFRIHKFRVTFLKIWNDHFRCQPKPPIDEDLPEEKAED
As to the kind of experiment: Agonistic activity against adenosine A1 receptor. The class given is functional.

For assay [2], the target named is T2, Adenosine receptor A1 (Rattus norvegicus) (UniProt P25099).
T2 sequence (whole entry): T1 sequence (P25099 whole entry)
As to the kind of experiment: Bmax value for adenosine A1 receptor binding at 14.5 uM.

Assay [3] deals with T2, Adenosine receptor A1 (Rattus norvegicus). The assay is described as follows: Bmax value for adenosine A1 receptor binding at 145 uM.
The target of assay [4] is T1, Adenosine receptor A1. The assay is described as follows: Kd value for adenosine A1 receptor binding at 14.5 uM.
The target of assay [5] is T1, Adenosine receptor A1. The assay is described as follows: Kd value for adenosine A1 receptor binding at 145 uM.

With `CC(CCC(C)C(C)(C)C)C1CC[C@H]2[C@@H]3C[C@H](OS(=O)(=O)O)C4C[C@H](OS(=O)(=O)O)[C@@H](OS(=O)(=O)O)CC4(C)[C@H]3CCC12C` (stereo partly specified), in assay [1], the negative logarithm of the IC50 (pIC50) – broadly, the negative decadic logarithm of the IC50, by convention in mol/L – is 3.92. Besides, the Bmax is 346 fmol/mg in assay [2] and 319 fmol/mg in assay [3]. For the same molecule, the pKd (commonly −log10 of the Kd, conventionally taken in molar units) in assay [4] is 8.86; in assay [5], 7.97.
As for `COc1cc(-c2oc3c(OC)cc(CCCO)cc3c2C=O)ccc1O`, the pIC50 in assay [1] was 7.77.
